Each block holds one compound with its values, some of them ahead of it. Non-standard residues stand in square brackets, D forms with d. Residues, ends and D or L forms follow the SMILES beside them. No end group written: not given here. Lys(N3) = [N-]=[N+]=NCCCC[C@H](N)C(=O)O
How the values were obtained:
[1] = biological target: T1, recombinant human GFRα-like His-tag receptor (Homo sapiens, UniProt Q6UXV0); assay: ELISA binding assay of GDF15 to GFRAL receptor; details: GDF15 run at 100 ng/mL to 0.005 ng/mL; receptor 0.1 μg/mL on nickel coated plate
T1 construct: purchased R&D 9647-GR-050
T1 sequence (Q6UXV0 19-394): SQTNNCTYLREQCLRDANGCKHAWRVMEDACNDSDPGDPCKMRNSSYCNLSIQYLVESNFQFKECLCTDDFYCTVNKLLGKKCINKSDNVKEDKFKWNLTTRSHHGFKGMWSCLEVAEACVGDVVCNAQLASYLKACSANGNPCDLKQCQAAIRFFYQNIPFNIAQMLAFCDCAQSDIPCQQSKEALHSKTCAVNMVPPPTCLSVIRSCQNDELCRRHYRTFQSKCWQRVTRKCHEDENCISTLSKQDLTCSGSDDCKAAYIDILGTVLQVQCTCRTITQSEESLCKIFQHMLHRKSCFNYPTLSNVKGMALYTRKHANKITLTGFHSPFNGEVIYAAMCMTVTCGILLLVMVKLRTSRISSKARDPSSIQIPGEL
Procedure: To validate binding of the synthesized peptides to the GFRAL receptor, an ELISA assay was developed to determine the binding affinity of the peptides for their receptor. The primary antibody (Abcam ab206414) was diluted to 1 μg/mL. The secondary antibody was diluted by placing 5 μL into 10 mL assay buffer. GDF15 was run at concentrations of 100 ng/mL to 0.005 ng/mL. The recombinant human GFRα-like His-tag receptor (R&D 9647-GR-050) was added to the Pierce™ nickel coated plate (ThermoFisher Scientific 15442) at 0.1 μg/mL in a total volume of 100 μL.

male rats = assay: Ejaculation studies in rats; type: in vivo, rat; details: video recorded for 3 h
Procedure: Rats were video recorded for 3 h and the number of spontaneous ejaculations were analyzed by an observer blinded to treatment groups. Without wishing to be bound by theory, GFANT01 may be an agonist of the GFRAL receptor.

human GFRAL receptor = biological target: T2, human GFRAL receptor (Homo sapiens, UniProt Q6UXV0); assay: Cy5-conjugate binding to human GFRAL receptor in vitro, tracked with anti-Cy5 antibody; details: Cy5-conjugate exposed to human GFRAL receptor in vitro
T2 sequence (Q6UXV0 19-394): T1 sequence (Q6UXV0 19-394)
Excerpt: A Cy5-conjugate of GFRAL receptor antagonist was synthesized and exposed to the human GFRAL receptor in vitro and tracked for binding using an anti-Cy5 antibody.

rats [2] = assay: Nausea/malaise (illness-like behaviors) studies in rats; type: in vivo, rat; details: over the course of 24 hours
Procedure: (§1) Five potential ligands (GFANT01-GFANT05, SEQ. ID NOs: 1-5, wherein the K* in each peptide is Lysine(N3)) were synthesized. The effects of each of the novel ligands were tested for their ability to alter nausea in rats over the course of 24 hours. […] Animals were given either MIC-1 (30 pmol), the endogenous ligand of GFRAL that suppresses appetites, GFANT05 (300 pmol), or a combination of both and their food intake was monitored for up to 24 hrs (FIG. 5A). […] In addition, kaolin intake, a reliable measure of nausea in rats, was reduced in animals receiving GFANT05 compared to vehicle alone and that of a known nausea-inducing compound (MIC-1) (FIG. 5B). […] Analysis of emetic episodes were measured by an observer blinded to treatment groups.

rats [3] = assay: kaolin intake study; type: in vivo, rat; details: compared to vehicle alone and MIC-1
Procedure: (§2) FIG. 5A is a graph of a food intake study performed to evaluate the efficacy of unconjugated GFANT05 peptide (TK*[…]; SEQ ID NO: 5, wherein K* is K azido) to reduce nausea.
as §1

rats [4] = assay: food intake study; type: in vivo, rat
Procedure: as §2, §1

GFRAL receptor = assay: co-localization with the GFRAL receptor in the brainstem (image)
Excerpt: This technology provides a new route to treat cachexia and chemotherapy induced nausea/vomiting by uniquely blocking the GDF15-GFRAL signaling in the brainstem.

[5] = in vitro PK study in rat microsomes; type: in vitro ADME
Procedure: FIG. 8 is a graph illustrating the results from in vitro PK study of GFRAL receptor antagonist in rat microsomes. […] Reaction velocity (V) was calculated to be 511 uL/1 mg. Intrinsic clearance (Cl-int) was determined to be 339 uL/min/mg protein.

Compound: growth and differentiation factor 15 [GDF15]
KD [1]: 1.03 ng/mL | spontaneous ejaculation (male rats): the same effect

Compound: Cy5-conjugate of GFRAL receptor antagonist: Cy5-conjugate of GFRAL receptor antagonist, synthesized for tracking binding with an anti-Cy5 antibody (T[Lys(N3)]EELIHAHADPMVLIQKTDTGVSLQTYD; also: Cy5 conjugate, site not given here)
binding to the GFRAL receptor (human GFRAL receptor): confirming GFRAL receptor antagonist binding to the GFRAL receptor

Compound: GFANT05: engineered peptide TK*EELIHAHADPMVLIQKTDTGVSLQTYD; GFRAL receptor antagonist (T[Lys(N3)]EELIHAHADPMVLIQKTDTGVSLQTYD)
effect on nausea/illness-like behaviors (rats [2]): significant effect | kaolin intake (rats [3]): reduced | overall food consumption (rats [4]; GFANT05 (300 pmol) added to MIC-1 (30 pmol), compared with MIC-1): did not increase overall food consumption over MIC-1 | food intake (rats [4]; GFANT05 (300 pmol) alone, 24 hrs post-administration, vs untreated control): ate the same amount of food as untreated control animals | co-localization with the GFRAL receptor (GFRAL receptor): co-localizing with the GFRAL receptor in the brainstem

Compound: GFANT01: engineered peptide EDDVSFQK*LDDNVRYHTLRK; may be an agonist of the GFRAL receptor (EDDVSFQ[Lys(N3)]LDDNVRYHTLRK; not fully specified; printed as EDDVSFQK*LDDNVRYHTLRK)
spontaneous ejaculation (male rats): result in spontaneous ejaculation

Reaction velocity (V) [5]: 511 uL/1 mg | half-life [5]: 1.74 h | microsomal CLint ([5]; read-out: Intrinsic clearance (Cl-int)): 339 µL/min/mg
Compound: CC[C@H](C)[C@H](NC(=O)[C@H](CC(C)C)NC(=O)[C@H](CCC(=O)O)NC(=O)[C@H](CCC(=O)O)NC(=O)[C@H](CCCCN=[N+]=[N-])NC(=O)[C@@H](N)[C@@H](C)O)C(=O)N[C@@H](Cc1c[nH]cn1)C(=O)N[C@@H](C)C(=O)N[C@@H](Cc1c[nH]cn1)C(=O)N[C@@H](C)C(=O)N[C@@H](CC(=O)O)C(=O)N1CCC[C@H]1C(=O)N[C@@H](CCSC)C(=O)N[C@H](C(=O)N[C@@H](CC(C)C)C(=O)N[C@H](C(=O)N[C@@H](CCC(N)=O)C(=O)N[C@@H](CCCCN)C(=O)N[C@H](C(=O)N[C@@H](CC(=O)O)C(=O)N[C@H](C(=O)NCC(=O)N[C@H](C(=O)N[C@@H](CO)C(=O)N[C@@H](CC(C)C)C(=O)N[C@@H](CCC(N)=O)C(=O)N[C@H](C(=O)N[C@@H](Cc1ccc(O)cc1)C(=O)N[C@@H](CC(=O)O)C(=O)O)[C@@H](C)O)C(C)C)[C@@H](C)O)[C@@H](C)O)[C@@H](C)CC)C(C)C [GFRAL receptor antagonist] (H-T[Lys(N3)]EELIHAHADPMVLIQKTDTGVSLQTYD-OH; N-terminus and C-terminus assumed)

— patent publication US12516092B2, “Peptide ligands of the GDNF family receptor A-like (GFRAL) receptor” (THE TRUSTEES OF THE UNIVERSITY OF PENNSYLVANIA, priority 2019, dated 2026)
